Measurements taken from the kinase profiling compilation of Christmann-Franck et al. (2016).
Values belong to the compound of their own block, whether it stands above or below them.

Assays:
Experiment in all cases: radiometric filter-binding kinase assay, Kinase HotSpot
Conditions in all cases: compound 0.5 µM; ATP 10 µM
[1] = target: MELK (human) (UniProt Q14680)
[2] = target: ULK1 (human) (UniProt O75385)
[3] = target: CDK5 CDK5R1 p25 (human) (UniProt Q00535+Q15078)
[4] = target: KIT (human) (UniProt P10721)
[5] = target: BLK (human) (UniProt P51451)
[6] = target: TSSK2 (human) (UniProt Q96PF2)
[7] = target: TEC (human) (UniProt P42680)
[8] = target: FER (human) (UniProt P16591)
[9] = target: MAP4K2 (human) (UniProt Q12851)
[10] = target: RPS6KA2 KD1 KD2 (human) (UniProt Q15349)
[11] = target: EPHA3 (human) (UniProt P29320)
[12] = target: PBK (human) (UniProt Q96KB5)
[13] = target: TYRO3 (human) (UniProt Q06418)
[14] = target: PIM2 (human) (UniProt Q9P1W9)
[15] = target: CDK4 CCND3 (human) (UniProt P30281+P11802)
[16] = target: NEK3 (human) (UniProt P51956)
[17] = target: CDK2 CCNA2 (human) (UniProt P24941+P20248)
[18] = target: MARK4 (human) (UniProt Q96L34)
[19] = target: TAOK1 (human) (UniProt Q7L7X3)
[20] = target: CDK9 CCNK (human) (UniProt O75909+P50750)
[21] = target: CHEK1 (human) (UniProt O14757)
[22] = target: PRKD3 (human) (UniProt O94806)
[23] = target: MAP3K8 (human) (UniProt P41279)
[24] = target: HIPK3 (human) (UniProt Q9H422)
[25] = target: FRK (human) (UniProt P42685)
[26] = target: TXK (human) (UniProt P42681)
[27] = target: RIPK2 (human) (UniProt O43353)
[28] = target: CDK2 CCNE1 (human) (UniProt P24941+P24864)
[29] = target: MAPK1 (human) (UniProt P28482)
[30] = target: RPS6KA3 KD1 KD2 (human) (UniProt P51812)
[31] = target: CAMK2D (human) (UniProt Q13557)
[32] = target: CSNK1E (human) (UniProt P49674)
[33] = target: MAPK8 (human) (UniProt P45983)
[34] = target: PNCK (human) (UniProt Q6P2M8)
[35] = target: NEK7 (human) (UniProt Q8TDX7)
[36] = target: MATK (human) (UniProt P42679)
[37] = target: FGFR4 (human) (UniProt P22455)
[38] = target: PRKCZ (human) (UniProt Q05513)
[39] = target: CHEK2 (human) (UniProt O96017)
[40] = target: TTK (human) (UniProt P33981)
[41] = target: CHUK (human) (UniProt O15111)

MARK4 (human), sequence (Q96L34 whole entry, looked up): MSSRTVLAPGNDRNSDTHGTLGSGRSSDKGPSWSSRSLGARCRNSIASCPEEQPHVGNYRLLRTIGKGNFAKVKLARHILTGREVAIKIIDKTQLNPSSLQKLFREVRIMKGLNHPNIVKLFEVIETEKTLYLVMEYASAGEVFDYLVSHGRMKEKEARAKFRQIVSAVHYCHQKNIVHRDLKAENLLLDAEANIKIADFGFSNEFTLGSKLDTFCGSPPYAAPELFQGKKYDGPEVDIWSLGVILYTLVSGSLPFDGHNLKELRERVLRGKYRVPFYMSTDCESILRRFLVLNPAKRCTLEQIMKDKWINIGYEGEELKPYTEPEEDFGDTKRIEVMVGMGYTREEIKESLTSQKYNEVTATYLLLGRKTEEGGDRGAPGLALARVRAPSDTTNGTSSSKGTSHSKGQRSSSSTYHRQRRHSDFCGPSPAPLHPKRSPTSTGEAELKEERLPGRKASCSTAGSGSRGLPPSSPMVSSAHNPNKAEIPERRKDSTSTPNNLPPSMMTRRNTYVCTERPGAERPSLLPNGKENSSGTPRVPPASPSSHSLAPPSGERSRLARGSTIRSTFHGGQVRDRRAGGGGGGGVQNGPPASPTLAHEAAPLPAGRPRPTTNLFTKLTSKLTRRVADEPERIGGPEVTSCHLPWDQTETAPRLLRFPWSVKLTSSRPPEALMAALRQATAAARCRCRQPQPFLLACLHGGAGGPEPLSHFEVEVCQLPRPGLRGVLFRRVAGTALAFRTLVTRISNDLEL
RIPK2 (human), sequence (O43353 whole entry, looked up): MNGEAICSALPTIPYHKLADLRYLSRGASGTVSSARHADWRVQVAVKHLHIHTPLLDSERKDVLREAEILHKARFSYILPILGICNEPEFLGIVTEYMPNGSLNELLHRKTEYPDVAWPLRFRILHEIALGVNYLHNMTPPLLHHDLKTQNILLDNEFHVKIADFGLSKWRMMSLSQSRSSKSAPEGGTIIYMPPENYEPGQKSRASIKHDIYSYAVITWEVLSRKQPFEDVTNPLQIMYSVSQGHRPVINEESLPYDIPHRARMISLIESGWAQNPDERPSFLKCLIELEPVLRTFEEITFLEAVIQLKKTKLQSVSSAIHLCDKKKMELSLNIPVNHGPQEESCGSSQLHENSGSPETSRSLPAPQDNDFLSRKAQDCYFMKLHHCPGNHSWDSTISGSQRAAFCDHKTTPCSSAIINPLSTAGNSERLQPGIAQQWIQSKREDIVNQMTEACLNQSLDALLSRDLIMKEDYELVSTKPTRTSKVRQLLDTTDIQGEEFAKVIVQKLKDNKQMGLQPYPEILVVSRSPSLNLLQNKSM
PNCK (human), sequence (Q6P2M8 whole entry, looked up): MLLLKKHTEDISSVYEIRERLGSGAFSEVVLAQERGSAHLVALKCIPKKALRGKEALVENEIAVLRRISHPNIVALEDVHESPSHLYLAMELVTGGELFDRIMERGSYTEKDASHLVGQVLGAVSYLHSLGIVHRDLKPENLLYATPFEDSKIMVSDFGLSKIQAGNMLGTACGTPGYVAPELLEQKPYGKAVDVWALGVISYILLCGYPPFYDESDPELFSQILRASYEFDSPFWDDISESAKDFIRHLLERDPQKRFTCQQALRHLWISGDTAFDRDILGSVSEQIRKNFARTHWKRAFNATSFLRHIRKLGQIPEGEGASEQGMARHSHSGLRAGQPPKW
CDK2 CCNE1 (human), sequence (P24864 whole entry, looked up, other chains not shown): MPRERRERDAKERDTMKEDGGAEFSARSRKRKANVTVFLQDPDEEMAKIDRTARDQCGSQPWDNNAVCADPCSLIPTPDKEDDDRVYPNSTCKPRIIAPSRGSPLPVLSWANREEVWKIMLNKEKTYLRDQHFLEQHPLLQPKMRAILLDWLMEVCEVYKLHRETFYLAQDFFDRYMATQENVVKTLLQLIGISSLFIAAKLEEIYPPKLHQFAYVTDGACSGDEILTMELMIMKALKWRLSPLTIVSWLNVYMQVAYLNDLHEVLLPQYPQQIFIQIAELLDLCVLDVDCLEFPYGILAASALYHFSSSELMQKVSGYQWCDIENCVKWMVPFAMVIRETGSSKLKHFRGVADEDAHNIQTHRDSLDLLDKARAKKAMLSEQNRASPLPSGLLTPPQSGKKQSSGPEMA
CDK9 CCNK (human), sequence (O75909 whole entry, looked up): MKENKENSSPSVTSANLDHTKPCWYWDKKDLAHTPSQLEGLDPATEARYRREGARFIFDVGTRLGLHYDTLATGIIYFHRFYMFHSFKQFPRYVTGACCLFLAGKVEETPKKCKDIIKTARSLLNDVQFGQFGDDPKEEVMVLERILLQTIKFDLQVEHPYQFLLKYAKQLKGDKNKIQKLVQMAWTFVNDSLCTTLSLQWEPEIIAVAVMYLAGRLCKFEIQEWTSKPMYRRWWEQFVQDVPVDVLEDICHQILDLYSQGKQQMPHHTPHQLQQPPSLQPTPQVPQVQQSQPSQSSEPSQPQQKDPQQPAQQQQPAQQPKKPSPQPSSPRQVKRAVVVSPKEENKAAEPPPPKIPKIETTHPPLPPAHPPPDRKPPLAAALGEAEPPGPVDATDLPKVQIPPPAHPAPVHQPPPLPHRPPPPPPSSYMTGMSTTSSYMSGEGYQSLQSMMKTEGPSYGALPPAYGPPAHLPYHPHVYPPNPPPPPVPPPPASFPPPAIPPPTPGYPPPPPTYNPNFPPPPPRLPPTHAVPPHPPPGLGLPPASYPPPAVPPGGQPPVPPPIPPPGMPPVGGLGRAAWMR
CDK9 CCNK (human), sequence (P50750 whole entry, looked up): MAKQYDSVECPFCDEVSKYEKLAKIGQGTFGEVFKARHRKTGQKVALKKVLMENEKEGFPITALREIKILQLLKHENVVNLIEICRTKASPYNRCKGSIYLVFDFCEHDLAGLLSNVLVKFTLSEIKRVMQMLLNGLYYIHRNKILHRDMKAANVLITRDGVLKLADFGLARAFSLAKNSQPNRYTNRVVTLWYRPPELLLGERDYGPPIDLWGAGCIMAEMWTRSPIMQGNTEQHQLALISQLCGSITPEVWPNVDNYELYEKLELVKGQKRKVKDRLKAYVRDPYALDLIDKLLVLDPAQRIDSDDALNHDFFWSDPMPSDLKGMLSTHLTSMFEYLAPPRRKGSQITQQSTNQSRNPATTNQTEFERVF
MAP3K8 (human), sequence (P41279 whole entry, looked up): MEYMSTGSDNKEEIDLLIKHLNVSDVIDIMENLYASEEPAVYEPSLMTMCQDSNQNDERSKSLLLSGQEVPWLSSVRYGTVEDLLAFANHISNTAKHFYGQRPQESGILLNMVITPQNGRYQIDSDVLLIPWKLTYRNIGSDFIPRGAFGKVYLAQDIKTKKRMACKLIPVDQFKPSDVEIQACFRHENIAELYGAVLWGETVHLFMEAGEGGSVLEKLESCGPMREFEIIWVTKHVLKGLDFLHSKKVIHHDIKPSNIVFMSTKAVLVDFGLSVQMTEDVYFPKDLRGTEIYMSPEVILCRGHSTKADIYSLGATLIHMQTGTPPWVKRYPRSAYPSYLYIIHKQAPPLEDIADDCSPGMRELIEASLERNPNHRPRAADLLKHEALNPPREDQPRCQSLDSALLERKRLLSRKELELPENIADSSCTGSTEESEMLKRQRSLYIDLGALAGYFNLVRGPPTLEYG
CDK5 CDK5R1 p25 (human), sequence (Q00535 whole entry, looked up): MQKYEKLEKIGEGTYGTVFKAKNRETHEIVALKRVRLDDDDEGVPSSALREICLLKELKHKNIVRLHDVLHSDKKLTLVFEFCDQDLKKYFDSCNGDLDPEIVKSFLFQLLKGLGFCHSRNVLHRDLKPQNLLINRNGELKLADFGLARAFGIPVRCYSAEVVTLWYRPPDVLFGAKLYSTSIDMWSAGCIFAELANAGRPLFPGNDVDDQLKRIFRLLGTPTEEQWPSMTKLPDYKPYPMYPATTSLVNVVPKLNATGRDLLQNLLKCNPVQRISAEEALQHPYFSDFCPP
CDK5 CDK5R1 p25 (human), sequence (Q15078 whole entry, looked up): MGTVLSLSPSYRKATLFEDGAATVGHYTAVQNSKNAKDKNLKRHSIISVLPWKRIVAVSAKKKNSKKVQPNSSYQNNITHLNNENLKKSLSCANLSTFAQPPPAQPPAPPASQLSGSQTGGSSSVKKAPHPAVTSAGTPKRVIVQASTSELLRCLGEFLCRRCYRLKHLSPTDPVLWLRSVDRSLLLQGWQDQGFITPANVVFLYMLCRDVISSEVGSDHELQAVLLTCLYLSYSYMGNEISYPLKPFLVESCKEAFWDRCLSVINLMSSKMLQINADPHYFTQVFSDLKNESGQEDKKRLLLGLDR
NEK3 (human), sequence (P51956 whole entry, looked up): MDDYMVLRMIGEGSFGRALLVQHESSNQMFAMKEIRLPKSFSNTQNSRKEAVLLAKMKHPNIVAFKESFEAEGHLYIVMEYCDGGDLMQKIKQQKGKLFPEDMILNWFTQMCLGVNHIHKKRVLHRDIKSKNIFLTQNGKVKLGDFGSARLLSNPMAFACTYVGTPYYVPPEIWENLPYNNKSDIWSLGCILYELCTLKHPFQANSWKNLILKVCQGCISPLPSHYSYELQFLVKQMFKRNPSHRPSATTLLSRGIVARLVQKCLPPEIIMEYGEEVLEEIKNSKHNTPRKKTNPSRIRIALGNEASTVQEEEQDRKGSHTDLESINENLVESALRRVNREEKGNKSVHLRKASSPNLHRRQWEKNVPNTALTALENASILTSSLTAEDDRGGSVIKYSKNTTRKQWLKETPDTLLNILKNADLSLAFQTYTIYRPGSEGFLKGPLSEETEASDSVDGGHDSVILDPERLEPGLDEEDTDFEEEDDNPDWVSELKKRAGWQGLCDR
PIM2 (human), sequence (Q9P1W9 whole entry, looked up): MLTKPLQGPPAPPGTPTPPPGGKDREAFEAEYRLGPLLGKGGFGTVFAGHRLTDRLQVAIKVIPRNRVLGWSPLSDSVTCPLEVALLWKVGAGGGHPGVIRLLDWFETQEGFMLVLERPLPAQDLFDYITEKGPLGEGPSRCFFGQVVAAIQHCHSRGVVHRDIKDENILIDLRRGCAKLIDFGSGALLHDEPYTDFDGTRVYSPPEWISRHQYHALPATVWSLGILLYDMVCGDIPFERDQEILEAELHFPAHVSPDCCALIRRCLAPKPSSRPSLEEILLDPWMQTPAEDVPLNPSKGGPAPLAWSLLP

residual activity [1]: 78.9%
residual activity [2]: 5.17%
residual activity [3]: 82%
residual activity [4]: 51.3%
residual activity [5]: 51.7%
residual activity [6]: 96.3%
residual activity [7]: 86.7%
residual activity [8]: 81%
residual activity [9]: 53.5%
residual activity [10]: 75.4%
residual activity [11]: 103%
residual activity [12]: 104%
residual activity [13]: 34.7%
residual activity [14]: 103%
residual activity [15]: 101%
residual activity [16]: 98.7%
residual activity [17]: 103%
residual activity [18]: 36.2%
residual activity [19]: 41.9%
residual activity [20]: 90.2%
residual activity [21]: 89.7%
residual activity [22]: 42.7%
residual activity [23]: 82.9%
residual activity [24]: 103%
residual activity [25]: 95.4%
residual activity [26]: 102%
residual activity [27]: 92.7%
residual activity [28]: 87%
residual activity [29]: 85.1%
residual activity [30]: 76.8%
residual activity [31]: 68.4%
residual activity [32]: 76.1%
residual activity [33]: 86.9%
residual activity [34]: 101%
residual activity [35]: 90.3%
residual activity [36]: 100%
residual activity [37]: 104%
residual activity [38]: 94.5%
residual activity [39]: 85.1%
residual activity [40]: 90.7%
residual activity [41]: 100%
Structure (SMILES): Cc1[nH]c(/C=C2\C(=O)Nc3ccc(S(=O)(=O)N(C)c4cccc(Cl)c4)cc32)c(C)c1C(=O)N1CCN(C)CC1

Structure (SMILES): CCN(CC)C(=O)c1ccc(Nc2nc(OCC3CCCCC3)c3nc[nH]c3n2)cc1
residual activity [1]: 76.3%
residual activity [2]: 77.7%
residual activity [3]: 77.2%
residual activity [4]: 40.7%
residual activity [5]: 60.9%
residual activity [6]: 87.4%
residual activity [7]: 63%
residual activity [8]: 42%
residual activity [9]: 59.7%
residual activity [10]: 30.9%
residual activity [11]: 99.9%
residual activity [12]: 116%
residual activity [13]: 90.4%
residual activity [14]: 105%
residual activity [15]: 59.2%
residual activity [16]: 69.4%
residual activity [17]: 55.8%
residual activity [18]: 93.8%
residual activity [19]: 57.9%
residual activity [20]: 72.6%
residual activity [21]: 66.1%
residual activity [22]: 66.5%
residual activity [23]: 101%
residual activity [24]: 96.4%
residual activity [25]: 116%
residual activity [26]: 46%
residual activity [27]: 97.2%
residual activity [28]: 76.5%
residual activity [29]: 106%
residual activity [30]: 17.6%
residual activity [31]: 94.5%
residual activity [32]: 95.6%
residual activity [33]: 51.1%
residual activity [34]: 117%
residual activity [35]: 103%
residual activity [36]: 95.6%
residual activity [37]: 94.4%
residual activity [38]: 95.8%
residual activity [39]: 71.3%
residual activity [40]: 47.8%
residual activity [41]: 103%

Structure (SMILES): Nc1ncnc2[nH]nc(Nc3ccc(F)cc3)c12
residual activity [1]: 97.7%
residual activity [2]: 95.6%
residual activity [3]: 82.5%
residual activity [4]: 93.5%
residual activity [5]: 101%
residual activity [6]: 90.8%
residual activity [7]: 86%
residual activity [8]: 100%
residual activity [9]: 88.9%
residual activity [10]: 70.6%
residual activity [11]: 107%
residual activity [12]: 87.6%
residual activity [13]: 100%
residual activity [14]: 89.3%
residual activity [15]: 111%
residual activity [16]: 102%
residual activity [17]: 88.7%
residual activity [18]: 99.4%
residual activity [19]: 92%
residual activity [20]: 92.4%
residual activity [21]: 88%
residual activity [22]: 86.7%
residual activity [23]: 99.7%
residual activity [24]: 101%
residual activity [25]: 90%
residual activity [26]: 67.6%
residual activity [27]: 68.7%
residual activity [28]: 90.3%
residual activity [29]: 80.8%
residual activity [30]: 89.8%
residual activity [31]: 92.5%
residual activity [32]: 80.5%
residual activity [33]: 111%
residual activity [34]: 98.4%
residual activity [35]: 97%
residual activity [36]: 95.6%
residual activity [37]: 107%
residual activity [38]: 109%
residual activity [39]: 98.6%
residual activity [40]: 96.1%
residual activity [41]: 99.5%

Structure (SMILES): CNc1cc2c(Nc3cccc(Br)c3)ncnc2cn1
residual activity [1]: 91.6%
residual activity [2]: 98.8%
residual activity [3]: 82.9%
residual activity [4]: 86.4%
residual activity [5]: 103%
residual activity [6]: 87.2%
residual activity [7]: 109%
residual activity [8]: 97.1%
residual activity [9]: 74.8%
residual activity [10]: 83.5%
residual activity [11]: 96.1%
residual activity [12]: 102%
residual activity [13]: 98.8%
residual activity [14]: 102%
residual activity [15]: 120%
residual activity [16]: 101%
residual activity [17]: 106%
residual activity [18]: 84.5%
residual activity [19]: 92.4%
residual activity [20]: 105%
residual activity [21]: 108%
residual activity [22]: 78.5%
residual activity [23]: 90.2%
residual activity [24]: 94.1%
residual activity [25]: 91.2%
residual activity [26]: 79.9%
residual activity [27]: 69.2%
residual activity [28]: 88.6%
residual activity [29]: 88.6%
residual activity [30]: 86.6%
residual activity [31]: 97.9%
residual activity [32]: 84.8%
residual activity [33]: 96.4%
residual activity [34]: 100%
residual activity [35]: 90.4%
residual activity [36]: 88%
residual activity [37]: 93.7%
residual activity [38]: 98.6%
residual activity [39]: 85.7%
residual activity [40]: 100%
residual activity [41]: 99%
